{
  "source": "patent US7196117B2",
  "about": "“Use of cationic surfactant as activity enhancer in deodorants and oral care” (Laboratorios Miret, S.A., priority 2001, dated 2007)",
  "key": {"[1]": {"experiment": "metabolism in rats", "format": "in vivo"}, "[2]": {"experiment": "toxicological studies", "format": "in vivo", "settings": "animals and humans"}},
  "data": [
    {"smiles": "CCCCCCCCCCCC(=O)N[C@@H](CCCN=C(N)N)C(=O)OCC.Cl", "note": "[LAE, ethyl ester of the lauramide of the arginine monohydrochloride]", "values": [
      {"measurement": "absorption and metabolism", "setting": "[1]", "result": "fast absorption and metabolism into naturally-occurring amino acids and the fatty acid lauric acid"},
      {"measurement": "toxicity", "setting": "[2]", "result": "completely harmless to animals and humans"}
    ]}
  ]
}
